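Interpolation was linear, between the two tested concentrations surrounding the appropriate level; five concentrations were tested over 48 hours in 96-well plates. Here, GI50 denotes the concentration required for 50% inhibition of growth.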 Calls of active or inactive are those of the source. No stated cut-off is given here; in the data, active = GI50 up to about 1.1 µM and inactive = higher.
Tests used:
Assay in all cases: DTP human tumour cell line panel, 48 h
[1] = test system: UO-31
[2] = test system: Malme-3M
[3] = test system: RPMI-8226
[4] = test system: A498
[5] = test system: SF-268
[6] = test system: UACC-62
[7] = test system: HOP-62
[8] = test system: SNB-19
[9] = test system: NCI-H23
[10] = test system: ACHN
[11] = test system: K562
[12] = test system: HT-29
[13] = test system: U-251
[14] = test system: M14
[15] = test system: MDA-N
[16] = test system: HCT-15
[17] = test system: HL-60
[18] = test system: LOX IMVI
[19] = test system: CAKI-1

SMILES | GI50 [1] | GI50 [2] | GI50 [3] | GI50 [4] | GI50 [5] | GI50 [6] | GI50 [7] | GI50 [8] | GI50 [9] | GI50 [10] | GI50 [11] | GI50 [12] | GI50 [13] | GI50 [14] | GI50 [15] | GI50 [16] [µM] | GI50 [17] | GI50 [18] | GI50 [19]
Cc1c(C#N)c(N)n(C2OC(CO)C(O)C(O)C2O)c(=S)c1C#N (stereo not drawn) | > 100 µM (inactive) | > 100 µM (inactive) | > 100 µM (inactive) | > 100 µM (inactive) | > 100 µM (inactive) | > 100 µM (inactive) | > 100 µM (inactive) | > 100 µM (inactive) | > 100 µM (inactive) | > 100 µM (inactive) | > 100 µM (inactive) | > 100 µM (inactive) | > 100 µM (inactive) | > 100 µM (inactive) | > 100 µM (inactive) | > 100 | > 100 µM (inactive) | > 100 µM (inactive) | 
FC(F)(F)c1cccc(/C=N/C23CC4CC(CC(C4)C2)C3)c1 | > 100 µM (inactive) | > 100 µM (inactive) | > 100 µM (inactive) | > 100 µM (inactive) | > 100 µM (inactive) |  | > 100 µM (inactive) | > 100 µM (inactive) | > 100 µM (inactive) | > 100 µM (inactive) | > 100 µM (inactive) | > 100 µM (inactive) | > 100 µM (inactive) | > 100 µM (inactive) |  | > 100 | > 100 µM (inactive) | > 100 µM (inactive) | > 100 µM (inactive)
COC1(OC)CCCc2c1no[n+]2[O-] | > 100 µM (inactive) | > 100 µM (inactive) | > 100 µM (inactive) | > 100 µM (inactive) | > 100 µM (inactive) | > 100 µM (inactive) | > 100 µM (inactive) | > 100 µM (inactive) | > 100 µM (inactive) | > 100 µM (inactive) | > 100 µM (inactive) | > 100 µM (inactive) | > 100 µM (inactive) | > 100 µM (inactive) | > 100 µM (inactive) | > 100 | > 100 µM (inactive) | > 100 µM (inactive) | > 100 µM (inactive)
CCCCCC(C/C=N/N(C)C)C(O)(C(F)(F)F)C(F)(F)F (stereo not drawn) | 36.2 µM (inactive) | 25.4 µM (inactive) | 11.3 µM (inactive) | 23.7 µM (inactive) | 36.7 µM (inactive) | 59.8 µM (inactive) | 42.3 µM (inactive) | 37 µM (inactive) | 25.2 µM (inactive) | 24.4 µM (inactive) | 22.5 µM (inactive) | 29 µM (inactive) | 25.4 µM (inactive) | 38.7 µM (inactive) | 38.4 µM (inactive) | 49.8 | 14.2 µM (inactive) | 43.2 µM (inactive) | 43.6 µM (inactive)
CC(=O)O[C@H]1C(N(C)C(=O)c2ccccc2)CC[C@]2(C)C3CC[C@@]4(C)C(CC(O)[C@@H]4C(C)N(C)C)[C@@H]3CCC12 (stereo partly drawn) |  | > 100 µM (inactive) | > 100 µM (inactive) | > 100 µM (inactive) | > 100 µM (inactive) | > 100 µM (inactive) | > 100 µM (inactive) | > 100 µM (inactive) | > 100 µM (inactive) | > 100 µM (inactive) | > 100 µM (inactive) | > 100 µM (inactive) | > 100 µM (inactive) | > 100 µM (inactive) |  | > 100 | 89.5 µM (inactive) | > 100 µM (inactive) | > 100 µM (inactive)
C=CCNC(=O)NCCCC(NC(C)=O)C(=O)NCc1ccccc1 (stereo not drawn) | > 100 µM (inactive) | > 100 µM (inactive) | > 100 µM (inactive) | > 100 µM (inactive) | > 100 µM (inactive) | > 100 µM (inactive) | > 100 µM (inactive) | > 100 µM (inactive) | > 100 µM (inactive) | > 100 µM (inactive) | > 100 µM (inactive) | > 100 µM (inactive) | > 100 µM (inactive) | > 100 µM (inactive) |  | > 100 | > 100 µM (inactive) | > 100 µM (inactive) | > 100 µM (inactive)
O=C(CCN1CCC(CCO)CC1)Nc1ccc2c(c1)C(=O)c1ccc(NC(=O)CCN3CCC(CCO)CC3)cc1C2=O | 34.4 µM (inactive) | 11 µM (inactive) | 25.9 µM (inactive) | 19.9 µM (inactive) | 11.3 µM (inactive) | 9.04 µM (inactive) | 17.3 µM (inactive) | 16.9 µM (inactive) | 26.5 µM (inactive) | 41.9 µM (inactive) | 8.05 µM (inactive) | 13.5 µM (inactive) | 9.1 µM (inactive) |  |  | 27.7 | 24.6 µM (inactive) | 8.39 µM (inactive) | 34.8 µM (inactive)
N#CCCn1c(S)nnc1CCC(=O)Nc1ccc(Cl)cc1Cl | > 100 µM (inactive) | > 100 µM (inactive) | > 100 µM (inactive) | > 100 µM (inactive) | > 100 µM (inactive) | > 100 µM (inactive) | > 100 µM (inactive) | > 100 µM (inactive) | > 100 µM (inactive) | > 100 µM (inactive) | 41.4 µM (inactive) | > 100 µM (inactive) | > 100 µM (inactive) | > 100 µM (inactive) |  | > 100 | 94.2 µM (inactive) | 71.6 µM (inactive) | > 100 µM (inactive)

— ChEMBL document CHEMBL1201862, “PubChem BioAssay data set” (2004)
